# According to patent US11447517B2, “Galactoside inhibitor of galectins” (GALECTO BIOTECH AB, priority 2018, dated 2022):
# Columns and labels:
# [1] = Uptake over CACO-2 cell monolayers; type: in vitro ADME; settings: human; for Papp A→B: apical to basolateral; for Papp B→A: basolateral to apical; for efflux ratio: read-out: Efflux ratio Papp (B > A/A > B)
# Source text: Uptake of a drug over the intestine can be predicted measuring the uptake over a monolayer of CACO-2 cells measured as Papp(10^-6 cm/s). […] By introduction of small alkyl substituents to the galactoside 2-OH such as compounds of formula (1) results in low or no efflux combined with a high uptake (Papp >10 10^-6 cm/s) over CACO-2 cells from the apical to the basolateral side of the cells.
# galectins = settings: cited from earlier work
# galectin-3 = galectin-3 (Homo sapiens (Human), UniProt P17931); assay: Fluorescence anisotropy assay, inhibition of galectin / fluorescein tagged saccharide probe interaction; type: binding
# Experimental: Evaluation of Kd Values The affinity of Example 1-71 for galectins were determined by a fluorescence anisotropy assay where the compound was used as an inhibitor of the interaction between galectin and a fluorescein tagged saccharide probe as described Sörme, P., Kahl-Knutsson, B., Huflejt, M., Nilsson, U. J., and Leffler H. (2004) Fluorescence polarization as an analytical tool to evaluate galectin-ligand interactions. Anal. Biochem. 334: 36-47, (Sörme et al., 2004) and Monovalent interactions of Galectin-1 By Salomonsson, Emma; Larumbe, Amaia; Tejler, Johan; Tullberg, Erik; Rydberg, Hanna; Sundin, Anders; Khabut, Areej; Frejd, Torbjorn; Lobsanov, Yuri D.; Rini, James M.; et al, From Biochemistry (2010), 49(44), 9518-9532, (Salomonsson et al., 2010). […] 100 nM albumin was included as a carrier to prevent protein loss at such low concentration of galectin.
# galectin-3, sequence (P17931 whole entry): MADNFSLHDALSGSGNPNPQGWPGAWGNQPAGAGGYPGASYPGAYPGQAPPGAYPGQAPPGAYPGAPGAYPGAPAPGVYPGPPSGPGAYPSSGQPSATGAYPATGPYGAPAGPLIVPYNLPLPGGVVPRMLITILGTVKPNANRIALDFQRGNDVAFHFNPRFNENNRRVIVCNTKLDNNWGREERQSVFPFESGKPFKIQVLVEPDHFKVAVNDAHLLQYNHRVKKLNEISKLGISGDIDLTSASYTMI
SMILES,Papp A→B [1],Papp B→A [1],efflux ratio [1],"Affinity, times lower than lactose (galectins; relative to lactose)",Kd (galectin-3),"Kd (galectins; Leffler 2001, Leffler et al. 2004, read-out: Kd, all galectins)"
Cc1ccc(-c2cn([C@@H]3C(O)[C@@H](Sc4cc(Cl)cnc4C#N)OC(CO)[C@@H]3O)nn2)cc1F (stereo partly shown),3 ×10⁻⁶ cm/s,30 ×10⁻⁶ cm/s,10,–,–,–
N#Cc1ncc(Cl)cc1S[C@H]1OC(CO)[C@H](O)[C@H](n2cc(-c3cc(F)c(Cl)c(F)c3)nn2)C1O (stereo partly shown),5 ×10⁻⁶ cm/s,46 ×10⁻⁶ cm/s,9,–,–,–
OCC1O[C@H](Sc2cncc(Cl)c2)C(O)[C@@H](n2cc(-c3cc(F)c(F)c(F)c3)nn2)[C@H]1O (stereo partly shown),4 ×10⁻⁶ cm/s,36 ×10⁻⁶ cm/s,9,–,–,–
O=C[C@H](O)[C@@H](O)[C@@H](O)[C@H](O)CO [D-galactose],–,–,–,50-100 times,–,–
"CO[C@@H]1[C@@H](n2cc(-c3cc(F)c(F)c(F)c3)nn2)[C@@H](O)[C@@H](CO)O[C@@H]1Sc1cncc(Br)c1 [Example 1, 5-Bromopyridin-3-yl 3-deoxy-3-[4-(3,4,5-trifluorophenyl)-1H-1,2,3-triazol-1-yl]-2-O-methyl-1-thio-α-D-galactopyranoside]",30 ×10⁻⁶ cm/s,38 ×10⁻⁶ cm/s,1.2,–,0.025 µM,–
"CO[C@@H]1[C@@H](n2cc(-c3ccc(C)c(F)c3)nn2)[C@@H](O)[C@@H](CO)O[C@@H]1Sc1cc(Cl)cnc1C#N [Example 13, 5-Chloro-2-cyanopyridin-3-yl 3-deoxy-3-[4-(3-fluoro-4-methylphenyl)-1H-1,2,3-triazol-1-yl]-2-O-methyl-1-thio-α-D-galactopyranoside]",18 ×10⁻⁶ cm/s,23 ×10⁻⁶ cm/s,1.3,–,0.014 µM,–
"CO[C@@H]1[C@@H](n2cc(-c3ccc(C)c(F)c3)nn2)[C@@H](O)[C@@H](CO)O[C@@H]1Sc1cncc(Cl)c1 [Example 35, 5-Chloropyridin-3-yl 3-deoxy-3-[4-(3-fluoro-4-methylphenyl)-1H-1,2,3-triazol-1-yl]-2-O-methyl-1-thio-α-D-galactopyranoside]",31 ×10⁻⁶ cm/s,45 ×10⁻⁶ cm/s,1.4,–,0.045 µM,–
"CO[C@@H]1[C@@H](n2cc(-c3ccc(C)c(F)c3)nn2)[C@@H](O)[C@@H](CO)O[C@@H]1Sc1cncc(Br)c1 [Example 36, 5-Bromopyridin-3-yl 3-deoxy-3-[4-(3-fluoro-4-methylphenyl)-1H-1,2,3-triazol-1-yl]-2-O-methyl-1-thio-α-D-galactopyranoside]",28 ×10⁻⁶ cm/s,32 ×10⁻⁶ cm/s,1.1,–,0.026 µM,–
"CO[C@@H]1[C@@H](n2cc(-c3ccc(C)c(F)n3)nn2)[C@@H](O)[C@@H](CO)O[C@@H]1Sc1cncc(Cl)c1 [Example 43, 5-Chloropyridin-3-yl 3-deoxy-3-[4-(6-fluoro-5-methylpyridin-2-yl)-1H-1,2,3-triazol-1-yl]-2-O-methyl-1-thio-α-D-galactopyranoside]",26 ×10⁻⁶ cm/s,34 ×10⁻⁶ cm/s,1.3,–,0.039 µM,–
"CCO[C@@H]1[C@@H](n2cc(-c3cc(F)c(F)c(F)c3)nn2)[C@@H](O)[C@@H](CO)O[C@@H]1Sc1cc(Br)ccc1C(=O)N1CCC1 [Example 65, 2-(N-azetidinyl-carbonyl)-5-bromophenyl 3-deoxy-3-[4-(3,4,5-trifluorophenyl)-1H-1,2,3-triazol-1-yl]-2-O-ethyl-1-thio-α-D-galactopyranoside]",–,–,–,–,0.018 µM,–
"CO[C@@H]1[C@@H](n2cc(-c3cc(F)c(F)c(F)c3)nn2)[C@@H](O)[C@@H](CO)O[C@@H]1Sc1cc(Cl)ccc1C(=O)N1CCC1 [Example 70, 2-(N-azetidinyl-carbonyl)-5-chlorophenyl 3-deoxy-3-[4-(3,4,5-trifluorophenyl)-1H-1,2,3-triazol-1-yl]-2-O-methyl-1-thio-α-D-galactopyranoside]",–,–,–,–,0.012 µM,–
"CO[C@@H]1[C@@H](n2cc(-c3cc(F)c(Cl)c(F)c3)nn2)[C@@H](O)[C@@H](CO)O[C@@H]1Sc1ccc(Cl)c(Cl)c1 [Example 71, 3,4-Dichlorophenyl 3-[4-(4-chloro-3,5-difluorophenyl)-1H-1,2,3-triazol-1-yl]-3-deoxy-2-O-methyl-1-thio-α-D-galactopyranoside]",–,–,–,–,0.25 µM,–
OC[C@H]1O[C@@H](O[C@H]2[C@H](O)[C@@H](O)C(O)O[C@@H]2CO)[C@H](O)[C@@H](O)[C@H]1O (stereo partly shown) [lactose],–,–,–,–,–,500 to 1000 µM
